Assay results published in patent publication US7557142B2, “Therapeutic use of methionine to reduce the toxicity of platinum-containing anti-tumor compounds” (Board of Trustees of Southern Illinois University, priority 1996, dated 2009).
Entries after “also recorded” stand apart in the source; their conditions may differ. Counter-ions that a name gives are not always drawn.

Tests used:
[1] = tested on: animals; conditions: literature, cited from earlier work
[2] = tested on: rats; conditions: cited from earlier work; for CDDP nephroprotection: literature (Jones et al.; others)
[3] = literature; cited from earlier work
[4] = literature; cited from earlier work; remark: listed apart in the source
[5] = tested on: Walker 256 carcinosarcoma; conditions: rat, in vivo; cited from earlier work
[6] = tested on: patients; conditions: human, in vivo; cited from earlier work
[7] = tested on: male Wistar rats; experiment: Scanning electron microscopy, outer hair cell count per cochlear turn; type: in vivo, rat; conditions: for outer hair cell findings, middle and basal turns: versus untreated control, 75, 150, 300 mg/kg D-Met prior to 16 mg/kg CDDP
Procedure: (§1) Complete data sets were obtained for five groups of five male Wistar rats (280-421 g). All animals were anesthetized with […] IM of Rompun cocktail (a solution containing 86.21 mg/ml ketamine and 2.76 mg/ml xylazine) prior to all injections and testing. Anesthesia was supplemented as needed with half doses throughout testing.
(§2) ABR data were analyzed using a three factor analysis of variance (ANOVA) with one between subject factor (groups) and two within subject factors (frequency and pre- vs. post-test). Each dependent variable was analyzed independently. Tests subsequent to the ANOVA were carried out in accordance with the Tukey HSD procedure. Weight loss and/or gastrointestinal protection was measured using the same type of statistical analysis as the ABR measures. SEM data were analyzed for each turn using a one way analysis of variance with Post-Hoc Tukey HSD analysis. The criterion for statistical significance for all measures was p≦0.01.

[8] = tested on: male Wistar rats
Procedure: as §1

[9] = tested on: NHIK 3025 in vitro human uterine cervix carcinoma in situ cancer cells; conditions: methionine, presumably a racemic mixture; Melvik and Petterson, 1987; cited from earlier work
[10] = tested on: male Wistar rats; remark: listed apart in the source
Procedure: as §1
Each animal's weight was measured in an Ohaus triple beam balance scale before administration of the anesthetic for the pretest and again before the post-test 3 days later.
as §2

[11] = tested on: male Wistar rats; experiment: Auditory Brainstem Testing (ABR) of auditory threshold, D-Met before CDDP; type: in vivo, rat
[12] = parenteral administration in humans; Printen et al., 1979; cited from earlier work
[13] = tested on: hamsters; conditions: Church et al. (1995); cited from earlier work
[14] = tested on: patients; conditions: cited from earlier work
[15] = 16 mg/kg CDDP alone (treated control)

CCN(CC)C(=S)S [DDTC, diethyldithiocarbamate]
side effects of the protective agent [1]: can produce severe side effects

O=S([O-])([O-])=S.[Na+].[Na+] [STS, sodium thiosulfate]
CDDP nephroprotection [2]: reduces CDDP nephrotoxicity | CDDP otoprotection ([1]; animals): good CDDP otoprotection | protection against CDDP-induced weight loss [3]: may exacerbate CDDP-induced weight loss and mortality | effect on CDDP anti-tumor action [4]: may reduce CDDP tumoricidal action; also recorded: reduces the latter's tumoricidal action

O=C(O)CCCC[C@@H]1SC[C@@H]2NC(=O)N[C@@H]21 [Biotin]
CDDP nephroprotection [2]: good CDDP nephroprotection | effect on CDDP anti-tumor action [4]: inhibits anti-tumor activity

C[C@H](CS)C(=O)N1CCC[C@H]1C(=O)O [Captropril]
CDDP nephroprotection [2]: protects against CDDP nephrotoxicity

N.N.[Cl][Pt][Cl] [CDDP, cis-diamminedichloroplatinum(II)]
time to complete redistribution after tumor uptake [5]: ≤ 15 min | patients with hearing loss having complete recovery [6]: one of 121 | outer hair cell findings, middle and basal turns [7]: significantly different findings from the untreated control group | animals surviving to the end of the study period [8, 15]: 5/10 | animals that did not survive to the end of the study period [8, 15]: 50%

CC(S)C(=O)NCC(=O)O (stereo not shown) [N-(2-mercapto-propionyl)glycine]
CDDP nephroprotection [2]: exacerbate CDDP nephrotoxicity

CSCC[C@H](N)C(=O)O (racemic) [methionine]
effect of preadministration on CDDP cytotoxicity [9]: sensitized NHIK 3025 in vitro human uterine cervix carcinoma in situ cancer cells to CDDP cytotoxicity

CC1(C)S[C@@H]2[C@H](NC(=O)Cc3ccccc3)C(=O)N2[C@H]1C(=O)[O-].[Na+] [sodium salt of penicillin G, penicillin G]
CDDP nephroprotection [2]: does not protect against CDDP nephrotoxicity or weight loss | protection against CDDP-induced weight loss [3]: does not protect against CDDP nephrotoxicity or weight loss

CSCC[C@H](N)C(N)=O [L-methioninamide]
CDDP nephroprotection [2]: excellent CDDP nephroprotection | effect on CDDP anti-tumor action [4]: impairs CDDP anti-tumor action

Cc1ncc(C[n+]2csc(CCO)c2C)c(N)n1 [thiamine-HCl]
CDDP nephroprotection [2]: does not protect against cisplatin nephrotoxicity or weight loss | protection against CDDP-induced weight loss [3]: does not protect against cisplatin nephrotoxicity or weight loss

CSCC[C@@H](N)C(=O)O [D-Met, D-methionine]
weight loss compared with treated control group ([10]; 300 mg/kg D-Met prior to 16 mg/kg CDDP, 3 days): significantly less than that in the treated control group | CDDP-induced weight loss versus D-Met dose ([10]; 75, 150, 300 mg/kg D-Met prior to 16 mg/kg CDDP): diminished as D-Met dosing increased | animals with complete otoprotection as defined by no significant ABR threshold shift for any stimulus ([11]; 75 mg/kg D-Met i.p. 30 minutes prior to 16 mg/kg CDDP, ABR 3 days later): 2/5 | animals with complete otoprotection as defined by no significant ABR threshold shift for any stimulus ([11]; 150 mg/kg D-Met i.p. 30 minutes prior to 16 mg/kg CDDP, ABR 3 days later): 3/5 | animals with complete otoprotection for all stimulus conditions ([11]; 300 mg/kg D-Met i.p. 30 minutes prior to 16 mg/kg CDDP, ABR 3 days later): 5 animals | ABR thresholds compared with treated control group, all stimuli ([11]; any level of D-Met (75, 150, 300 mg/kg) prior to 16 mg/kg CDDP, p≦0.01): significantly lower ABR thresholds than the treated control group | CDDP nephroprotection [2]: highly effective CDDP nephroprotection | hair cell counts, apical turn ([7]; all groups, apical turn): essentially normal hair cell counts | outer hair cell findings, middle and basal turns [7]: only the treated control group showed significantly different findings | alopecia: coat and hair loss versus control group animals ([8]; D-Met prior to 16 mg/kg CDDP): significantly less hair loss | neuroprotection: activity and coordination versus surviving treated controls ([8]; morning of the third day, D-Met prior to 16 mg/kg CDDP): noticeably more lively, active, and coordinated

CCOC(=O)[C@@H](N)CS [Ethyl-L-cysteinate]
CDDP nephroprotection [2]: exacerbate CDDP nephrotoxicity

CC1=C(C(=O)O)N2C(=O)[C@@H](NC(=O)[C@H](N)c3ccccc3)[C@H]2SC1 [Cephalexin]
prevention of CDDP kidney pathology ([2]; Jones et al., 1992): does not prevent kidney pathology | CDDP nephroprotection [2]: protects against CDDP-induced kidney dysfunction and weight loss | protection against CDDP-induced weight loss [3]: protects against CDDP-induced kidney dysfunction and weight loss

CSc1ncccc1C(=O)O [2-(methylthio)nicotinic acid]
CDDP nephroprotection [2]: does not provide nephroprotection in rats

Nc1ccc(S(=O)(=O)Nc2nccs2)cc1 [Sulfathiazole]
CDDP nephroprotection [2]: provides protection against CDDP nephrotoxicity

CSCCC(N)C(=O)O (racemic) [DL-methionine]
plasma levels of isomers [12]: higher plasma levels of the D- isomer

NCCCNCCSP(=O)(O)O [WR2721]
protection from CDDP ototoxicity or mortality [13]: no WR2721 protection from ototoxicity or mortality | effect on nausea and vomiting ([14]; Glover et al., 1987): does not ameliorate nausea and vomiting | CDDP nephroprotection ([14]; Mollman et al., 1988): excellent CDDP nephroprotection | patients with mild to severe hearing loss ([14]; WR2721 prior to CDDP, Glover et al. (1987)): 20 of 36 | incidence of significant hearing threshold shift ([14]; patients pretreated with WR2721 prior to CDDP, Rubin et al. (1995)): 45%

CO[C@@]1(NC(=O)Cc2cccs2)C(=O)N2C(C(=O)O)=C(COC(N)=O)CS[C@@H]21 [cefoxitin]
CDDP nephroprotection [2]: does not provide nephroprotection | protection against CDDP-induced weight loss [3]: some protection against CDDP-induced weight loss
